These results are taken from patent US20100069409A1, “"NOVEL COMPOUNDS"” (GLAXO GROUP LIMITED, priority 2006, published 2010).

Compound `Cc1c(F)cc(C(=O)NC2CC2)cc1-c1nc(NC(CO)CO)nc2c1ccc(=O)n2-c1c(F)cccc1F` [Example 49, N-cyclopropyl-3-(8-(2,6-difluorophenyl)-2-{[2-hydroxy-1-(hydroxymethyl)ethyl]amino}-7-oxo-7,8-dihydropyrido[2,3-d]pyrimidin-4-yl)-5-fluoro-4-methylbenzamide] returned a melting point of 214.2 to 217.5 °C.
The value for `CSc1nc(-c2cc(C(=O)N(C)C)ccc2C)c2c(n1)N(c1c(F)cccc1F)C(=O)NC2` [Example 73, 3-[8-(2,6-difluorophenyl)-2-(methylthio)-7-oxo-5,6,7,8-tetrahydropyrimido[4,5-d]pyrimidin-4-yl]-N,N,4-trimethylbenzamide] was 144 to 147 °C.

In general, melting point refers to the temperature, or range, at which the solid turns liquid.
